In US7572828B2, “Identification of anti-HIV compounds inhibiting virus assembly and binding of nucleocapsid protein to nucleic acid” (The United States of America as represented by the …, priority 2002, dated 2009):

What was measured:
Gag precursor protein = target: T1, Gag precursor protein (Human immunodeficiency virus type 1 group M subtype B, UniProt P04591); test: Secondary screen: disruption of in vitro assembly of Gag precursor protein into virus-like particles; assay type: biochemical; settings: for disrupted viral assembly: artificial viral particles from recombinant Gag protein and tRNA; for EC50: in vitro, assay not given
T1 construct: human immunodeficiency virus type 1 Gag protein lacking the p6 domain; made in house
From the text: A secondary screen was used to identify small molecules that disrupt in vitro assembly of Gag precursor protein into virus-like particles. Artificial viral particles were assembled from recombinant Gag protein and tRNA as previously described (see, e.g., Campbell & Rein, “In vitro assembly properties of human immunodeficiency virus type 1 Gag protein lacking the p6 domain” J. Virol. 73: 2270-2279, 1999). […]

NC-p7 protein = target: T2, NC-p7 protein (Human immunodeficiency virus type 1 group M subtype B, UniProt P04591); test: High throughput screen: disruption of association of viral NC-p7 protein with a biotinylated 28 base oligonucleotide; assay type: binding, HIV-1; settings: 10 μM of test compound; hit threshold 100% inhibition
T2 construct: nucleocapsid p7 (NCp7) protein portion of the polyprotein
Experimental: A high throughput screen was used to detect small molecules that disrupted the association of viral NC-p7 protein with an oligonucleotide. The assay was performed using a Tomtec Quadra robotic system. NC protein was immobilized on Costar (Corning, N.Y.) high-bind polystyrene 96 well plates by incubating 100 μl 250 nM NC-p7 in phosphate buffered saline (PBS)/10 μM zinc chloride/10 mM β-mercaptoethanol/0.05% Tween overnight at 4° C. 200 μl of 2% BSA in PBS/10 μM zinc chloride/10 mM β-mercaptoethanol/0.05% Tween was added and incubated at room temperature for 1-2 hours in order to block the plates. The plates were then washed 2 times with 200 μl PBS/10 μM zinc chloride/10 mM β-mercaptoethanol/0.05% Tween using a Titertek M96V plate washer and stored overnight at 4° C. 5 nM biotinylated 28 base oligonucleotide (5′ […] 3′) in PBS/10 μM zinc chloride/10 mM β-mercaptoethanot/0.05% Tween was added to each well followed by 10 μM of test compound (in 20% dimethyl sulphoxide) from the Diversity Set and allowed to incubate at room temperature for 1 hour. Plates were then washed 3 times with 200 μl PBS/0.05% Tween. Binding of the biotinylated 28 mer was measured by adding 100 μl 1:20000 dilution of nutravidin-horse radish peroxidase (stock 0.8 mg/ml, from Pierce Chemical Co. Rockford, Ill.) and incubating at room temperature for 1 hour. The plates were washed 3 times with 200 μl PBS/0.05% Tween. Plates were developed by adding 100 μl of Supersignal (Pierce Chemical Co. Rockford, Ill.) and bioluminescence was measured in a Wallac Victor plate reader. […] The hit threshold was set at 100% inhibition.

HIV = test: XTT-cytoprotection assay, cell based anti-HIV screening in CEM-SS cells; settings: for XTT: protection from HIV infection
From the text: One exemplary means to determine antiviral activity is with CEM-SS cells and virus (e.g., HIV-1RF) (MOI=0.01) using the XTT (2,3-bis[2-methoxy- 4-nitro-5-sulfophenyl]-5- [(phenylamino)carbonyl]-2H-tetrazolium hydroxide) cytoprotection assay (see, e.g., Weislow, et al, J. Natl. Canc. Inst. 81: 577-586, 1989; Rice PNAS 90:9721-9724, 1993; and Rice Antimicrob. Agents Chemother. 41:419-426, 1997). Briefly, cells are infected with HIV-1RF (or other virus to be tested) in the presence of various dilutions of test compounds (antimony or diphenyl compounds and controls). The cultures are incubated for seven days. […] The cell death is measured by XTT dye reduction. XTT is a soluble tetrazolium dye that measures mitochondrial energy output, similar to MTT. Positive controls using dextran sulfate (an attachment inhibitor) or 3′-Azido -2′-3′-dideoxythymidine, AZT (a reverse transcriptase inhibitor) are added to each assay. Individual assays are done in duplicate using a sister plate method.
Effective antiviral concentrations providing 50% cytoprotection (EC50), and cellular growth inhibitory concentrations causing 50% cytotoxicity (IC50) are calculated.
Cell based anti-HIV screening was performed in CEM-SS cells, using an XTT-cytoprotection assay (see, e.g., Weislow, et al, J. Natl. Canc. Inst. 81: 577-586, 1989; Rice PNAS 90:9721-9724, 1993; and Rice Antimicrob. Agents Chemother. 41:419-426, 1997)).

p24 = settings: unit not given
CEM-SS Leukemia cells = test: Uptake of radio-labelled compound in cells; assay type: in vitro ADME
Tolerability in mice = assay type: in vivo

Row | Compound | disrupted viral assembly (Gag precursor protein) | Active compounds identified in high throughput screen (disruption of NC-p7/oligonucleotide association) (NC-p7 protein) | activity in the cell based assay (XTT cytoprotection ranking) (HIV) | p24 assay (p24) | EC50 (Gag precursor protein) [µM] | XTT (HIV) | uptake of the compound in cells (CEM-SS Leukemia cells) | tolerability in vivo (Tolerability in mice)
1 | O=C(O)c1ccc(C(=O)c2ccccc2C(=O)O)cc1C(=O)O [NSC 28620] | disrupted viral assembly | Active | active |  |  |  |  | 
2 | CCOC(=O)CCCc1cc[c]([Sb](=[O])([OH])[OH])cc1 [NSC 13793] | disrupted viral assembly |  |  | 0.14 | 3.25 | I (inactive (0-49% protection)) |  | 
3 | O=S(=O)(O)c1cc[c]([Sb](=[O])([OH])[OH])cc1 [NSC 13746] | disrupted viral assembly | Active | active |  | 10 | A (active (80-100% protection from HIV infection)) |  | 
4 | O=C(O)c1ccc[c]([Sb](=[O])([OH])[OH])c1 [NSC 13759] | disrupted viral assembly |  | active | 0.19 | 1.5 | A (active (80-100% protection from HIV infection)) |  | 
5 | O=C(NCCO)c1ccc[c]([Sb](=[O])([OH])[OH])c1 [NSC 13782] |  |  | exhibited activity |  |  |  |  | 
6 | O=C(O)c1cc[c]([Sb](=[O])([OH])[OH])cc1 [NSC 13760] | disrupted viral assembly |  | active | 0.29 | 1.15 | A (active (80-100% protection from HIV infection)) |  | 
7 | O=C(O)/C=C/c1ccc[c]([Sb](=[O])([OH])[OH])c1 [NSC 13778] | disrupted viral assembly | Active | active | 0.11 | 3.8 | A (active (80-100% protection from HIV infection)) | energy-dependent uptake | tolerated in vivo
8 | NC(=O)c1ccc[c]([Sb](=[O])([OH])[OH])c1 [NSC 13765] | disrupted viral assembly |  | active | 0.41 | 3.75 | A (active (80-100% protection from HIV infection)) |  | 
9 | COC(=O)c1ccc[c]([Sb](=[O])([OH])[OH])c1 [NSC 13771] | disrupted viral assembly |  |  | 0.2 | 5.5 | I (inactive (0-49% protection)) |  | 
10 | O=C(O)c1cc[c]([Sb](=[O])([OH])[OH])cc1[N+](=O)[O-] [NSC 13755] | disrupted viral assembly | Active | active | 0.21 | 6.15 | A (active (80-100% protection from HIV infection)) |  | 
